Laboratory results taken from patent US8192962B2, “Processes for detecting toxic substances” (Daikin Industries, Ltd., priority 2001, dated 2012).

Tested on: Energy system protein genes
Test: DNA chip mRNA expression in yeast, energy system protein genes (Table 4)
Type: cell-based, Saccharomyces cerevisiae S288C
In short: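 Ratios compare mRNA levels in stressed and control S. cerevisiae. Each toxicant was applied for two hours to log-phase cultures at 25° C. at a sub-lethal, growth-inhibiting level; fluorescent cDNA (Cy3- or Cy5-dUTP) was hybridized to a genome-wide yeast chip for over 12 h at 65° C.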

## N#Cc1c(Cl)c(Cl)c(Cl)c(C#N)c1Cl [(9), 2,4,5,6-tetrachloro-1,3-benzenedicarbonitrile]
Yeast gene YJL121C, cells incubated two hours with the chemical substance
  The level of expressed mRNA in the presence of chemical substance/The level of expressed mRNA in the absence of chemical substance: 0.1
Yeast gene YJL166W, cells incubated two hours with the chemical substance
  The level of expressed mRNA in the presence of chemical substance/The level of expressed mRNA in the absence of chemical substance: 1.3
Yeast gene YJL216C, cells incubated two hours with the chemical substance
  The level of expressed mRNA in the presence of chemical substance/The level of expressed mRNA in the absence of chemical substance: 1.5
Yeast gene YJR009C
  The level of expressed mRNA in the presence of chemical substance/The level of expressed mRNA in the absence of chemical substance: 1.1
Yeast gene YJR048W
  The level of expressed mRNA in the presence of chemical substance/The level of expressed mRNA in the absence of chemical substance: 0.5
Yeast gene YJR121W, cells incubated two hours with the chemical substance
  The level of expressed mRNA in the presence of chemical substance/The level of expressed mRNA in the absence of chemical substance: 0.8
Yeast gene YJR155W
  The level of expressed mRNA in the presence of chemical substance/The level of expressed mRNA in the absence of chemical substance: 38.2
Yeast gene YKL016C, cells incubated two hours with the chemical substance
  The level of expressed mRNA in the presence of chemical substance/The level of expressed mRNA in the absence of chemical substance: 1.3
Yeast gene YKL060C, cells incubated two hours with the chemical substance
  The level of expressed mRNA in the presence of chemical substance/The level of expressed mRNA in the absence of chemical substance: 0.3
Yeast gene YKL141W, cells incubated two hours with the chemical substance
  The level of expressed mRNA in the presence of chemical substance/The level of expressed mRNA in the absence of chemical substance: 0.8
Yeast gene YKL148C, cells incubated two hours with the chemical substance
  The level of expressed mRNA in the presence of chemical substance/The level of expressed mRNA in the absence of chemical substance: 1.7
Yeast gene YKL150W
  The level of expressed mRNA in the presence of chemical substance/The level of expressed mRNA in the absence of chemical substance: 1.1
Yeast gene YKR009C, cells incubated two hours with the chemical substance
  The level of expressed mRNA in the presence of chemical substance/The level of expressed mRNA in the absence of chemical substance: 2.4
Yeast gene YKR058W, cells incubated two hours with the chemical substance, 25° C., YPD medium
  The level of expressed mRNA in the presence of chemical substance/The level of expressed mRNA in the absence of chemical substance: 1.3
Yeast gene YKR097W
  The level of expressed mRNA in the presence of chemical substance/The level of expressed mRNA in the absence of chemical substance: 1.9
Yeast gene YLL041C, cells incubated two hours with the chemical substance
  The level of expressed mRNA in the presence of chemical substance/The level of expressed mRNA in the absence of chemical substance: 0.7
Yeast gene YLR038C, cells incubated two hours with the chemical substance
  The level of expressed mRNA in the presence of chemical substance/The level of expressed mRNA in the absence of chemical substance: 0.4
Yeast gene YLR134W, cells incubated two hours with the chemical substance
  The level of expressed mRNA in the presence of chemical substance/The level of expressed mRNA in the absence of chemical substance: 0.1
Yeast gene YLR258W, cells incubated two hours with the chemical substance
  The level of expressed mRNA in the presence of chemical substance/The level of expressed mRNA in the absence of chemical substance: 0.8
Yeast gene YLR284C, cells incubated two hours with the chemical substance
  The level of expressed mRNA in the presence of chemical substance/The level of expressed mRNA in the absence of chemical substance: 0.9
Yeast gene YLR295C, cells incubated two hours with the chemical substance, 25° C., YPD medium
  The level of expressed mRNA in the presence of chemical substance/The level of expressed mRNA in the absence of chemical substance: 1.4
Yeast gene YLR304C, cells incubated two hours with the chemical substance
  The level of expressed mRNA in the presence of chemical substance/The level of expressed mRNA in the absence of chemical substance: 0.1
Yeast gene YLR345W
  The level of expressed mRNA in the presence of chemical substance/The level of expressed mRNA in the absence of chemical substance: 4.5
Yeast gene YLR354C, cells incubated two hours with the chemical substance
  The level of expressed mRNA in the presence of chemical substance/The level of expressed mRNA in the absence of chemical substance: 0.4
Yeast gene YLR377C, cells incubated two hours with the chemical substance
  The level of expressed mRNA in the presence of chemical substance/The level of expressed mRNA in the absence of chemical substance: 1.8
Yeast gene YLR395C, cells incubated two hours with the chemical substance
  The level of expressed mRNA in the presence of chemical substance/The level of expressed mRNA in the absence of chemical substance: 1.0
Yeast gene YML087C
  The level of expressed mRNA in the presence of chemical substance/The level of expressed mRNA in the absence of chemical substance: 1.9
Yeast gene YML120C, cells incubated two hours with the chemical substance
  The level of expressed mRNA in the presence of chemical substance/The level of expressed mRNA in the absence of chemical substance: 1.3
Yeast gene YML129C, cells incubated two hours with the chemical substance
  The level of expressed mRNA in the presence of chemical substance/The level of expressed mRNA in the absence of chemical substance: 1.4
Yeast gene YMR073C, cells incubated two hours with the chemical substance
  The level of expressed mRNA in the presence of chemical substance/The level of expressed mRNA in the absence of chemical substance: 1.2
Yeast gene YMR118C
  The level of expressed mRNA in the presence of chemical substance/The level of expressed mRNA in the absence of chemical substance: 9.3
Yeast gene YMR205C, cells incubated two hours with the chemical substance
  The level of expressed mRNA in the presence of chemical substance/The level of expressed mRNA in the absence of chemical substance: 0.3
Yeast gene YMR261C, cells incubated two hours with the chemical substance
  The level of expressed mRNA in the presence of chemical substance/The level of expressed mRNA in the absence of chemical substance: 1.6
Yeast gene YMR267W, cells incubated two hours with the chemical substance, 25° C., YPD medium
  The level of expressed mRNA in the presence of chemical substance/The level of expressed mRNA in the absence of chemical substance: 0.4
Yeast gene YMR323W, cells incubated two hours with the chemical substance
  The level of expressed mRNA in the presence of chemical substance/The level of expressed mRNA in the absence of chemical substance: 0.5
Yeast gene YNL071W
  The level of expressed mRNA in the presence of chemical substance/The level of expressed mRNA in the absence of chemical substance: 1.1
Yeast gene YNL202W, cells incubated two hours with the chemical substance
  The level of expressed mRNA in the presence of chemical substance/The level of expressed mRNA in the absence of chemical substance: 1.3
Yeast gene YNL241C
  The level of expressed mRNA in the presence of chemical substance/The level of expressed mRNA in the absence of chemical substance: 3.4
Yeast gene YNL331C
  The level of expressed mRNA in the presence of chemical substance/The level of expressed mRNA in the absence of chemical substance: 42.6
Yeast gene YOL086C, cells incubated two hours with the chemical substance
  The level of expressed mRNA in the presence of chemical substance/The level of expressed mRNA in the absence of chemical substance: 0.1
Yeast gene YOL165C
  The level of expressed mRNA in the presence of chemical substance/The level of expressed mRNA in the absence of chemical substance: 46.9
Yeast gene YOR142W, cells incubated two hours with the chemical substance
  The level of expressed mRNA in the presence of chemical substance/The level of expressed mRNA in the absence of chemical substance: 1.1
Yeast gene YOR178C, cells incubated two hours with the chemical substance
  The level of expressed mRNA in the presence of chemical substance/The level of expressed mRNA in the absence of chemical substance: 0.2
Yeast gene YOR388C, cells incubated two hours with the chemical substance
  The level of expressed mRNA in the presence of chemical substance/The level of expressed mRNA in the absence of chemical substance: 0.1
Yeast gene YPL031C, cells incubated two hours with the chemical substance
  The level of expressed mRNA in the presence of chemical substance/The level of expressed mRNA in the absence of chemical substance: 5.7
Yeast gene YPL061W, cells incubated two hours with the chemical substance
  The level of expressed mRNA in the presence of chemical substance/The level of expressed mRNA in the absence of chemical substance: 1.3
Yeast gene YPL088W
  The level of expressed mRNA in the presence of chemical substance/The level of expressed mRNA in the absence of chemical substance: 0.6
Yeast gene YPL171C
  The level of expressed mRNA in the presence of chemical substance/The level of expressed mRNA in the absence of chemical substance: 60.0
Yeast gene YPL240C
  The level of expressed mRNA in the presence of chemical substance/The level of expressed mRNA in the absence of chemical substance: 3.5
Yeast gene YPL262W, cells incubated two hours with the chemical substance
  The level of expressed mRNA in the presence of chemical substance/The level of expressed mRNA in the absence of chemical substance: 1.4
Yeast gene YPL275W, cells incubated two hours with the chemical substance
  The level of expressed mRNA in the presence of chemical substance/The level of expressed mRNA in the absence of chemical substance: 0.2
Yeast gene YPR048W, cells incubated two hours with the chemical substance
  The level of expressed mRNA in the presence of chemical substance/The level of expressed mRNA in the absence of chemical substance: 4.0
Yeast gene YPR184W, cells incubated two hours with the chemical substance
  The level of expressed mRNA in the presence of chemical substance/The level of expressed mRNA in the absence of chemical substance: 1.9
